Results from article PMC11091889, “Silver Organometallics that are Highly Potent Thioredoxin and Glutathione Reductase Inhibitors: Exploring the Correlations of Solution Chemistry with the Strong Antibacterial Effects” (ACS Infectious Diseases, 2024).

Assays:
[1] = Conductometry: molar conductivity of silver complexes in DMSO; format: physicochemical; conditions: 1.0 mM in DMSO, calculated as monocarbene (NHC)AgX
Method in brief: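 Molar conductivity of each silver complex was measured at 1.0 mM in freshly distilled DMSO (specific conductivity ≤3 × 10^–8 S cm^–1) using an Apera Instruments EC9500 conductivity meter at 25 ± 2 °C. AgNO3 served as the 1:1 electrolyte reference, and readings were taken after dissolution to distinguish neutral monocarbene from ionic biscarbene forms.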

[2] = tested on: E. coli (DSM1116, ATCC 9637); assay: microbe, parasite or virus in culture; format: cell-based, Escherichia coli
Method in brief: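 Escherichia coli DSM1116 (ATCC 9637) was tested by broth microdilution in 96-well plates in duplicate, with compounds serially diluted from 64 to 1 μg/mL. Inocula of 2–8 × 10^5 CFU/mL were used in MHB (21 g/L Müller Hinton broth, pH 7.4), either alone or supplemented with tryptone (17 g/L) or yeast extract (3 g/L). After 22 h at 37 °C, absorbance at 600 nm was read. MIC and EC50 were obtained by curve fitting in Sigma Plot from three independent experiments, and ciprofloxacin served as the positive control.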

[3] = tested on: P. aeruginosa PA7 (DSM 24068); assay: microbe, parasite or virus in culture; format: cell-based, Pseudomonas aeruginosa; conditions: n = 3, MHB
Method in brief: (§1)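 Broth microdilution used 2–8 × 10^5 CFU/mL inocula, with compounds serially diluted 64 to 1 μg/mL and incubated 22 h at 37 °C, read at 600 nm. A. baumannii, K. pneumoniae and P. aeruginosa were grown in MHB pH 7.4; E. faecium was grown in TSY pH 7.0–7.2. MIC and EC50 were obtained by curve fitting from three independent experiments.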

[4] = tested on: K. pneumoniae (DSM 11678, ATCC33495); assay: Broth microdilution antibacterial assay; format: cell-based, Klebsiella pneumoniae; conditions: n = 3, MHB
Method in brief: as §1

[5] = tested on: A. baumannii (DSM 30007, ATCC 19606); assay: Broth microdilution antibacterial assay; format: cell-based, Acinetobacter baumannii; conditions: n = 3, MHB
Method in brief: as §1

[6] = tested on: S. aureus MRSA (DSM 11822, ICB 25701); assay: microbe, parasite or virus in culture; format: cell-based, methicillin resistant S. aureus; conditions: n = 3, TSY
Method in brief: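 Broth microdilution in TSY (30 g/L trypticase soy broth, 3 g/L yeast extract, pH 7.0–7.2), inoculum 2–8 × 10^5 CFU/mL, compounds serially diluted 64 to 1 μg/mL, 22 h at 37 °C. Growth read as absorbance at 600 nm; MIC and EC50 obtained by curve fitting, three independent experiments.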

[7] = tested on: E. faecium (DSM 20477, ATCC 19434); assay: Broth microdilution antibacterial assay; format: cell-based, Enterococcus faecium; conditions: n = 3, TSY
Method in brief: as §1

[8] = target: T1, glutathione reductase (GR) from baker's yeast (Saccharomyces cerevisiae, UniProt P41921); assay: GR inhibition assay (DTNB reduction); format: biochemical; conditions: ± standard deviation, n = 3, 75 min preincubation
T1 construct: purchased Sigma-Aldrich
T1 sequence (P41921 17-483 limits assumed): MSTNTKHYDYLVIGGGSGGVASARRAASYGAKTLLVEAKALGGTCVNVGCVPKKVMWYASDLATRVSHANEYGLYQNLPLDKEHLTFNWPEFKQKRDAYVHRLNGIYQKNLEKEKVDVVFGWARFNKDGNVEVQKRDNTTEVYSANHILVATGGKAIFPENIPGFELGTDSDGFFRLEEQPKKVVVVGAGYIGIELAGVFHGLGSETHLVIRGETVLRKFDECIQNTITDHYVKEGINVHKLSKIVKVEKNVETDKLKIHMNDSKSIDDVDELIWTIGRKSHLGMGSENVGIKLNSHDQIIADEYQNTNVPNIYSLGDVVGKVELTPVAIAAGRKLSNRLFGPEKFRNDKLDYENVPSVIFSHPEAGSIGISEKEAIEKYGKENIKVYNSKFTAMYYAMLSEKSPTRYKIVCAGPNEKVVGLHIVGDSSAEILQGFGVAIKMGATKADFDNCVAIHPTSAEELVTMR
Experimental: (§2) The inhibition of purified E. coli thioredoxin reductase (TrxR) and glutathione reductase (GR) from both E. coli and baker’s yeast was determined according to a previously applied procedure.[59],[60]
(§3) The TrxR (E. coli) and GR (baker’s yeast and E. coli) inhibition assays were performed according to previously published procedures.[62],[75] The assays are partly based on the procedure developed by Lu et al.[60] and make use of the reduction of 5,5′-dithiobis(2-nitrobenzoic acid) (DTNB). Solutions of E. coli TrxR (35.4 U/mL) and E. coli thioredoxin (Trx) (156 μg/mL) (both purchased from Sigma-Aldrich) or baker’s yeast GR (0,08 U/mL, Sigma-Aldrich) or E. coli GR (4.2 U/ml, Antibodies online) and GSSG (0.28 mM, Sigma-Aldrich) in distilled water were prepared, as were fresh 2 mM stock solutions of the test compounds in DMSO. Then, solutions with several concentrations of the test compounds in DMSO were prepared, and 35 μL of each solution was diluted with 965 μL of TE buffer (Tris–HCl 50 mM, EDTA 1 mM, pH 7.5). These solutions (20 μL) or TE buffer without the test compounds (20 μL, as control) were mixed with the TrxR or GR solutions (10 μL), the Trx or GSSG solutions (10 μL), and a solution of NADPH (200 μM) in TE buffer (100 μL) in a well on a 96-well plate. As a blank solution, 200 μM NADPH in TE buffer (100 μL) mixed with a DMSO/buffer mixture (40 μL) was used (final concentrations of DMSO: 0.5% v/v). The plate was incubated for 75 min at 25 °C with moderate shaking. After incubation, 100 μL of a reaction mixture (TE buffer containing 200 μM NADPH and 5 mM DTNB) was added to each well to initiate the reaction. After thorough mixing, the formation of 5-TNB was monitored by a microplate reader at 405 nm in 35 s intervals (10 measurements). The values were corrected by subtraction of the blank solution absorption values. The increase in the concentration of 5-TNB followed a linear trend (r^2 ≥ 0.990), and the enzymatic activities were calculated as the gradients (increase in absorbance per second) thereof. […] The inhibition is presented as the mean IC50 values and standard deviations obtained in three independent experiments.

[9] = target: T2, glutathione reductase (GR) from E. coli (Escherichia coli, UniProt P06715); assay: GR inhibition assay (DTNB reduction); format: biochemical; conditions: ± standard deviation, n = 3, 75 min preincubation
T2 construct: purchased Antibodies online
T2 sequence (P06715 1-450): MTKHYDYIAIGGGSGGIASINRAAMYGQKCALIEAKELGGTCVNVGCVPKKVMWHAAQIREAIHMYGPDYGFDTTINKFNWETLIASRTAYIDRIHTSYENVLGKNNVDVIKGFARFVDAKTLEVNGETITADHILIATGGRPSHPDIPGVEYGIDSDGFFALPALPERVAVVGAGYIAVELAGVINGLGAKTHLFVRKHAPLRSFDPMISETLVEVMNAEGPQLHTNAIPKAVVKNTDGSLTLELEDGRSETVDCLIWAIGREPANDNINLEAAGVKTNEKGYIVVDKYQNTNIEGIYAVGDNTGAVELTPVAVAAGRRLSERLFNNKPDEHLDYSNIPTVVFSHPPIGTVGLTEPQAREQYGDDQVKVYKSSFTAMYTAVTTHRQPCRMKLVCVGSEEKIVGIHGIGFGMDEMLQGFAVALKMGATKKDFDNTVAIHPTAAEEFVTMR
Experimental: as §2, §3

[10] = target: E. coli thioredoxin reductase (TrxR) (Escherichia coli, UniProt P0A9P4); conditions: read-out: IC50 TrxR from E. coli; ± standard deviation, n = 3, 75 min preincubation
Chain of E. coli thioredoxin reductase (TrxR) (P0A9P4 whole entry): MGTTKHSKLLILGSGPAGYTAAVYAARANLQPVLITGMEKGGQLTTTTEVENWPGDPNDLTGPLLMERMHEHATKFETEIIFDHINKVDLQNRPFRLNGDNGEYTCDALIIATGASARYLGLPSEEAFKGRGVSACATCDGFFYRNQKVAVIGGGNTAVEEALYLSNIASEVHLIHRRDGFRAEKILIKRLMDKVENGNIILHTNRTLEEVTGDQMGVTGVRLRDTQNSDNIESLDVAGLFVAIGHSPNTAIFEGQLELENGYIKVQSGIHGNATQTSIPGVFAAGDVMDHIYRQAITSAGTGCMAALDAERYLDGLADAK
Experimental: as §2, §3

O=[N+]([O-])[O-].[Ag+] [AgNO3, Silver nitrate, reference compound]
Molar conductivity ΛM ([1]; 1 h after dissolution): 37.8 S cm^2 mol^–^1
Molar conductivity ΛM ([1]; 24 h after dissolution): 38.1 S cm^2 mol^–^1
MIC E. coli DSM 1116 in MHB + tryptone ([2]; Müller-Hinton Broth with tryptone (17 g/L), ± SE): 251.1 ± 62.8 µM
MIC E. coli DSM 1116 in MHB + yeast extract ([2]; Müller-Hinton Broth with yeast extract (3 g/L), ± SE): 123.6 ± 29.4 µM
MIC E. coli DSM 1116 in MHB ([2]; Müller-Hinton Broth without additive, ± SE): 5.89 ± 0.0 µM
EC50 ([2]; mean ± standard error, n = 3, MHB): 4.87 ± 0.1 µM
MIC E. coli ([2]; mean ± standard error, n = 3, MHB, 22 h): 5.9 ± 0.0 µM
MIC E. coli (value in brackets) ([2]; n = 3, MHB, 22 h): 1 mg/L
MIC P. aeruginosa ([3]; mean ± standard error, 22 h): 5.9 ± 0.0 µM
EC50 ([3]; mean ± standard error, read-out: EC50 P. aeruginosa): 4.12 ± 0.4 µM
MIC P. aeruginosa (value in brackets) ([3]; 22 h): 1 mg/L
MIC K. pneumoniae ([4]; mean ± standard error, 22 h): 5.9 ± 0.0 µM
EC50 ([4]; mean ± standard error, read-out: EC50 K. pneumoniae): 4.41 ± 0.5 µM
MIC K. pneumoniae (value in brackets) ([4]; 22 h): 1 mg/L
MIC A. baumannii ([5]; mean ± standard error, 22 h): 5.9 ± 0.0 µM
EC50 ([5]; mean ± standard error, read-out: EC50 A. baumannii): 4.16 ± 0.4 µM
MIC A. baumannii (value in brackets) ([5]; 22 h): 1 mg/L
MIC MRSA ([6]; mean ± standard error, 22 h): 188 ± 0.0 µM
EC50 ([6]; mean ± standard error, read-out: EC50 MRSA): 98.9 ± 6.4 µM
MIC MRSA (value in brackets) ([6]; 22 h): 32 mg/L
MIC E. faecium ([7]; mean ± standard error, 22 h): 94.1 ± 0.0 µM
EC50 ([7]; mean ± standard error, read-out: EC50 E. faecium): 75.9 ± 5.7 µM
MIC E. faecium (value in brackets) ([7]; 22 h): 16 mg/L
IC50 [8]: 0.033 ± 0.003 µM
IC50 [9]: 0.031 ± 0.001 µM
IC50 [10]: 0.054 ± 0.005 µM
